Experimental data: patent US20220265667A1 (priority 2019, published 2022)

Experiments:
[1] = tested on: murine bone marrow-derived mast cells (BMMCs); experiment: In vitro release of Interleukin-6 (IL-6) from IgE-preloaded murine bone marrow-derived mast cells (ELISA); assay type: cell-based, mice; conditions: Mus musculus, BMMC, 3 h; read-out: percentage of inhibition of IL-6 release
Description: (§1) According to the technique established by Razin et al. (Proc. Natl. Acad. Sci. USA 1981, 78:2559-2561), bone marrow cells (1×10^6/ml) from 6 to 8 week old mice (129/Sv×C57BL/6) were cultured (37° C. and 5% CO2) as single cell suspensions in RPMI 1640 medium (Sigma-Aldrich, Munich, Germany) supplemented with 15% fetal calf serum (FCS), 1% X63Ag8-653-conditioned medium (Karasuyama and Melchers, Eur. J. Immunol. 1988, 18:97-104), 2 mM L-glutamine, 10 μM β-mercaptoethanol, 50 units/ml penicillin, and […] streptomycin. At weekly intervals, the non-adherent cells were reseeded at 5×10^5 cells/ml in fresh medium. After 4-6 weeks in culture, greater than 99% of the cells were KIT- and […] as assessed by fluorescence-activated cell sorting (FACS) using phycoerythrin-labeled anti-KIT antibodies (Pharmingen, Mississauga, Canada) and fluorescein isothiocyanate (FITC)-labelled hamster anti-mouse FcεRIα antibodies (eBioscience, Frankfurt, Germany), respectively. The resulting cells are called bone marrow-derived mast cells (BMMCs).
(§2) For degranulation studies, BMMCs were preloaded with 0.15 μg/ml IgE anti-DNP (dinitrophenyl; Sigma Aldrich, Munich, Germany) overnight at 37° C. The cells were then washed and resuspended in Tyrode's buffer (130 mM NaCl, 5 mM KCl, 1.4 mM CaCl2, 1 mM MgCl2, 5.6 mM glucose, and 0.1% bovine serum albumin (BSA) in 10 mM Hepes, pH 7.4).
Subsequently, the cells were left unstimulated (unst) or stimulated with 20 ng/ml Ag (dissolved in medium) for 3 h. Subsequently, the cells were pelleted by centrifugation and the resulting cell pellet was discarded. For the determination of the amount of degranulated IL-6, the respective supernatant obtained by centrifugation was subjected to an IL-6 ELISA according to the manufacturer's instructions (BD, Heidelberg, Germany). Experiments were performed in triplicate.

[2] = tested on: patient with therapy-resistant systemic mastocytosis; experiment: Human in-vivo off-label clinical test, symptom intensity by visual analog score (VAS)
Description: The results of the clinical test were closely monitored, captured and documented together with patient. The patient is and diagnosed with systemic mastocytosis (WHO criteria, KIT816V positiv) with official diagnosis. […] The current daily treatment of the patient is: H1 antihistamine 3× daily, cromolyn 4×200 mg daily, PPI 110 mg daily, Vitamine C/Vitamine D upon need, Actonel, upon need decortin 40 to 60 mg.

[3] = tested on: murine bone marrow-derived mast cells (BMMCs); experiment: In vitro release of β-hexosaminidase (degranulation) from IgE-preloaded murine bone marrow-derived mast cells; assay type: cell-based, mice
Description: as §1, §2
Subsequently, the cells were left unstimulated (unst) or stimulated with 20 ng/ml antigen (Ag: dinitrophenyl-human serum albumin ([DNP-HSA]; dissolved in medium); Sigma Aldrich, Munich, Germany) for 30 min. The degree of degranulation was determined by measuring the release of β-hexosaminidase (Nishizumi et al., J Immunol 1997; 158:2350-2355). Experiments were performed in triplicates.

[4] = Mus musculus, BMMC, read-out: percentage of inhibition of β-hexosaminidase release

CCNC1=Nc2ccc(Cl)cc2C(C)(c2ccccc2)O1 (racemic) [Etifoxine, 6-Chloro-2-N-ethyl-4-methyl-4-phenyl-4H-3,1-benzoxazine-2-amine] was tested, and the inhibition at 3 µM [1] was 20%, the inhibition at 10 µM [1] was 48% and the inhibition at 30 µM [1] was 92%. For the same molecule, the “total clinical symptom intensity score (VAS)” value ([2]; after 6 weeks treatment, VAS baseline value 8, scale 0-10) was 4, the side effects ([2]; during the 6 week oral treatment, one patient) was “No side effects occurred” and the “reduction of total clinical symptom intensity score” value ([2]; one patient, oral 50 to 150 mg daily, over 6 weeks) was 50%. The inhibition at 10 µM [3, 4] was 30%, the inhibition at 30 µM [3, 4] was 68% and the “activity (degranulation) of unstimulated IgE-loaded BMMCs” value ([3]; unstimulated (absence of Ag), independently of the concentration studied) was “not significantly affected”.
